Target: GABA B receptor (Rattus norvegicus, UniProt O88871+Q9Z0U4)
Assay: In vitro displacement of [3H]GABA from Gamma-aminobutyric acid type B receptor sites in rat brain membranes
Type: cell membranes

GABA B receptor, sequence (Q9Z0U4 whole entry): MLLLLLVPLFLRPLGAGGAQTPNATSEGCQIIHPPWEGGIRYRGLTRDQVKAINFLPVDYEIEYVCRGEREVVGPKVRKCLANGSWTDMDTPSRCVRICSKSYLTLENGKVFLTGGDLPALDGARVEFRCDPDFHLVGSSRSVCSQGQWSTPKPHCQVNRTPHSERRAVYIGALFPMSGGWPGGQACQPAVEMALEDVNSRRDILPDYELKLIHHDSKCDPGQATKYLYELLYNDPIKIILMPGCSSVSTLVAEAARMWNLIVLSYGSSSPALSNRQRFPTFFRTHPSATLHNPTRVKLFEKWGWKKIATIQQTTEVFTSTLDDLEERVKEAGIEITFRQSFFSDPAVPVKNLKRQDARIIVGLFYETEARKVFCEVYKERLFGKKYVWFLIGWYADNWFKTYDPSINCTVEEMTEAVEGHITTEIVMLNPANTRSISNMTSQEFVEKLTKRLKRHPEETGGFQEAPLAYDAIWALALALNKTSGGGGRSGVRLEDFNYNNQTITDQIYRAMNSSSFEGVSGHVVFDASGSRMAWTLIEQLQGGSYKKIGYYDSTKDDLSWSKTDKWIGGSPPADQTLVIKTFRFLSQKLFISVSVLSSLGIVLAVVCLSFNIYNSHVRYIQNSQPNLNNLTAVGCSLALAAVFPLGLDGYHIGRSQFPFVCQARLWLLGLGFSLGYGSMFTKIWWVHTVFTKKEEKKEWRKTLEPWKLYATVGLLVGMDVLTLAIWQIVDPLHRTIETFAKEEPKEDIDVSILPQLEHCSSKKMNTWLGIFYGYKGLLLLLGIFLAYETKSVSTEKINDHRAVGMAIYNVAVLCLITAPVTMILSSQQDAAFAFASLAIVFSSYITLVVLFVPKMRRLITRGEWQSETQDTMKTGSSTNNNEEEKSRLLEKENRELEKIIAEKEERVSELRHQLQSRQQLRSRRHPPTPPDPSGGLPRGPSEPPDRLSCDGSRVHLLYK
GABA B receptor, sequence (O88871 whole entry): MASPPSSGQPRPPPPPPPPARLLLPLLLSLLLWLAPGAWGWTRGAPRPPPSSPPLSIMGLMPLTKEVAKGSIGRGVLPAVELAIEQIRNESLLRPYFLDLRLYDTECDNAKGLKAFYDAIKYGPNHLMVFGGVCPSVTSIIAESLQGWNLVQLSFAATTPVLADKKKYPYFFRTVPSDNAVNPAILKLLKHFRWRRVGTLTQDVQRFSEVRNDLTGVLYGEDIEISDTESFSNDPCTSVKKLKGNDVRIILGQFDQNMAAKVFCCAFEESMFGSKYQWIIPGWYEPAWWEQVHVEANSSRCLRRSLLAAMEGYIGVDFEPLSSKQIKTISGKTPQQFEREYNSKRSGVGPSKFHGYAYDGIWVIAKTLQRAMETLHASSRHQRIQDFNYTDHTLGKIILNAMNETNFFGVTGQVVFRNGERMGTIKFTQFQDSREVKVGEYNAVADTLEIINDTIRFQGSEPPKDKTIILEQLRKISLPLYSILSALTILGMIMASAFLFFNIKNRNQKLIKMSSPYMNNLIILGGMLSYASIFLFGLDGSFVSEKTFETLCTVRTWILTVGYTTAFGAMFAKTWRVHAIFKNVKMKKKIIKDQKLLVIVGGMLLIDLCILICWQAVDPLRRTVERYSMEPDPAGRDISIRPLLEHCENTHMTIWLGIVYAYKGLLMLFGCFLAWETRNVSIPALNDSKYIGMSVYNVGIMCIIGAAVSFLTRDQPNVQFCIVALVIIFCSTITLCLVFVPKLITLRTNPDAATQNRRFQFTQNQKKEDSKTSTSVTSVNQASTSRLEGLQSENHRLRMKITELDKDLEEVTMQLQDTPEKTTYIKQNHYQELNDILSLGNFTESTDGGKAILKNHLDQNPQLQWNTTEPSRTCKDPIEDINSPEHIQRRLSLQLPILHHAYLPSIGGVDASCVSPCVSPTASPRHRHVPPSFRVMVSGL

Compared with `CCCCCCP(=O)(O)CCCN`, `CCP(=O)(O)CCCN` is 3-fold higher in IC50: 1000 nM for the first, 3000 nM for the second.

`CCOC(OCC)P(=O)(O)CCCN` and `NCCCP(=O)(O)O` are within 1.5-fold of each other in IC50: 2500 nM for the first, 2000 nM for the second.

Compared with `NCCCS(=O)(=O)O` [TRAMIPROSATE], `NCCOS(=O)(=O)O` is higher in IC50: 2000 nM for the first, > 100000 nM for the second.

First: NCCOP(=O)(O)O [PHOSPHORYLETHANOLAMINE]
Second: NCCC[PH](=O)O
The IC50 of the first is higher: > 100000 nM for the first, 3 nM for the second. The second is the more potent here.

Reference: ChEMBL document CHEMBL1127201, “Biological activity of 3-aminopropyl (methyl) phosphinic acid, a potent and selective GABAB agonist with CNS activity” (Bioorg Med Chem Lett, 1993)
